This test concerns P388 leukemia ip, CD2F1 mice, survival T/C. The test can be described thus: NCI In Vivo Anticancer Drug Screen. Data for tumor model P388 Leukemia (intraperitoneal) in CD2F1 (CDF1) mice. The following applies: endpoint: median survival time, higher = longer survival. Put shortly:
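Mice carrying the transplanted tumor received test compound or vehicle. Survival was recorded in each group, and the value is the treated-group measurement divided by that of the vehicle-treated control group.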

Where [1] appears, read: dose: 100.0 mg/kg/injection, schedule: Q04DX003 (ip), vehicle: saline.
Setting [2] is: dose: 200.0 mg/kg/injection, schedule: Q04DX003 (ip), vehicle: saline.
The mark [3] stands for this setting: dose: 50.0 mg/kg/injection, schedule: Q01DX005 (ip), vehicle: saline with Tween-80.
Setting [4] is: dose: 100.0 mg/kg/injection, schedule: Q01DX005 (ip), vehicle: saline with Tween-80.
Setting [5] is: dose: 200.0 mg/kg/injection, schedule: Q01DX005 (ip), vehicle: saline with Tween-80.
Setting [6] is: dose: 50.0 mg/kg/injection, schedule: Q01DX005 (ip), vehicle: Klucel (hydroxypropylcellulose) (HPC).
Where [7] appears, read: dose: 100.0 mg/kg/injection, schedule: Q01DX005 (ip), vehicle: Klucel (hydroxypropylcellulose) (HPC).
Setting [8] is: dose: 200.0 mg/kg/injection, schedule: Q01DX005 (ip), vehicle: Klucel (hydroxypropylcellulose) (HPC).
[9] abbreviates: dose: 60.0 mg/kg/injection, schedule: Q01DX005 (ip), vehicle: saline with Tween-80.
[10] abbreviates: dose: 120.0 mg/kg/injection, schedule: Q01DX005 (ip), vehicle: saline with Tween-80.
The mark [11] stands for this setting: dose: 240.0 mg/kg/injection, schedule: Q01DX005 (ip), vehicle: saline with Tween-80.
Where [12] appears, read: dose: 12.5 mg/kg/injection, schedule: Q01DX005 (ip), vehicle: Klucel (hydroxypropylcellulose) (HPC).
Where [13] appears, read: dose: 25.0 mg/kg/injection, schedule: Q01DX005 (ip), vehicle: Klucel (hydroxypropylcellulose) (HPC).
[14] abbreviates: dose: 6.25 mg/kg/injection, schedule: Q01DX009 (ip), vehicle: saline with Tween-80.
[15] abbreviates: dose: 12.5 mg/kg/injection, schedule: Q01DX009 (ip), vehicle: saline with Tween-80.
Setting [16] is: dose: 60.0 mg/kg/injection, schedule: Q01DX005 (ip), vehicle: saline.
The mark [17] stands for this setting: dose: 120.0 mg/kg/injection, schedule: Q01DX005 (ip), vehicle: saline.
The mark [18] stands for this setting: dose: 240.0 mg/kg/injection, schedule: Q01DX005 (ip), vehicle: saline.

Several values for one entry are separate records, joined by “and”; a condition that tells them apart may be missing. Identical values can stand only once. Inconclusive results and toxic doses are left out.

As to `O=C(O)CC(Cc1ncnc2c1ncn2C1OC(CO)C(O)C1O)C(=O)O` (stereo not given), the T/C runs as follows: under setting [1], 100 % of control; under setting [2], 99 % of control; (dose: 400.0 mg/kg/injection, schedule: Q04DX003 (ip), vehicle: saline) 99 % of control.
As to `CCC1(O)CC2CN(CCc3c([nH]c4ccccc34)C(C(=O)OC)(c3cc4c(cc3OC)N(C=O)C3C(O)(C(=O)OC)CC5(CC)C=CCN6CCC43C65)C2)C1` (stereo not given), the T/C is 155 % of control and 160 % of control (dose: 1.0 mg/kg/injection, schedule: Q01DX001 (ip), vehicle: saline); 158 % of control and 160 % of control (dose: 2.0 mg/kg/injection, schedule: Q01DX001 (ip), vehicle: saline); 180 % of control and 185 % of control (dose: 4.0 mg/kg/injection, schedule: Q01DX001 (ip), vehicle: saline); 205 % of control and 220 % of control (dose: 8.0 mg/kg/injection, schedule: Q01DX001 (ip), vehicle: saline); 255 % of control (dose: 16.0 mg/kg/injection, schedule: Q01DX001 (ip), vehicle: saline).
Consider `CC(=O)Nc1cc(S(=O)(=O)O)cc2c(N=Nc3ccc(C(=O)Nc4ccc(N=Nc5ccc(S(=O)(=O)O)cc5)cc4)cc3)c(S(=O)(=O)O)cc(O)c12`, for which the T/C reads like this: under setting [3], 93 % of control; under setting [4], 90 % of control; under setting [5], 101 % of control.
For the compound `Cc1[nH]c(NC(=O)C(=O)O)c(C#N)c1C`, the T/C is 106 % of control (dose: 50.0 mg/kg/injection, schedule: Q01DX009 (ip), vehicle: saline with Tween-80) and 100 % of control (dose: 200.0 mg/kg/injection, schedule: Q01DX009 (ip), vehicle: saline with Tween-80).
Regarding `CC1NC(=O)N(Cc2ccccc2Cl)C1=O` (stereo not given), the T/C was 110 % of control under setting [6], 106 % of control under setting [7] and 110 % of control under setting [8].
In the case of `C[C@H]1C[C@](C)(CO)Oc2oc3ccccc3c(=O)c21`, the T/C reads like this: under setting [9], 108 % of control; under setting [10], 109 % of control; under setting [11], 111 % of control.
Take `COCC1=C(C)CC(C(C)(C)C(=O)OC)C1=O` (stereo not given): the T/C by setting is: (dose: 100.0 mg/kg/injection, schedule: Q01DX001 (ip), vehicle: saline) 101 % of control; (dose: 200.0 mg/kg/injection, schedule: Q01DX001 (ip), vehicle: saline) 101 % of control; (dose: 400.0 mg/kg/injection, schedule: Q01DX001 (ip), vehicle: saline) 104 % of control.
Regarding `C[n+]1c2ccccc2cc2[nH]c3ccccc3c21`, where the note is “dose: 6.25 mg/kg/injection, schedule: Q01DX005 (ip), vehicle: Klucel + Tween-80”, the T/C was 105 % of control.
With `O=C(O)C(Cc1ccccc1)NSc1ccccc1[N+](=O)[O-]` (stereo not given), the T/C (dose: 25.0 mg/kg/injection, schedule: Q01DX009 (ip), vehicle: distilled water + Tween-80) is 98 % of control and 100 % of control; the T/C (dose: 50.0 mg/kg/injection, schedule: Q01DX009 (ip), vehicle: distilled water + Tween-80) is 107 % of control; the T/C (dose: 100.0 mg/kg/injection, schedule: Q01DX009 (ip), vehicle: distilled water + Tween-80) is 100 % of control and 116 % of control; the T/C (dose: 200.0 mg/kg/injection, schedule: Q01DX009 (ip), vehicle: distilled water + Tween-80) is 109 % of control.
For `Cc1cnc(C#N)c(C#N)n1`, the T/C runs as follows: (dose: 6.25 mg/kg/injection, schedule: Q01DX005 (ip), vehicle: Klucel (hydroxypropylcellulose) (HPC)) 103 % of control; under setting [12], 106 % of control; under setting [13], 100 % of control; under setting [6], 116 % of control.
`C=C=CC(C)(O)c1ccc(-c2ccccc2)cc1` (stereo not given): the T/C under setting [6] is 97 % of control, the T/C under setting [7] is 100 % of control and the T/C under setting [8] is 104 % of control.
For `Cc1cccc(CC(O)c2ccc(C=O)cc2)n1` (stereo not given), the T/C runs as follows: under setting [9], 105 % of control; under setting [10], 98 % of control; under setting [11], 98 % of control.
On to `Nc1nnn(N)n1`, for which the T/C by setting is: under setting [1], 92 % of control; under setting [2], 100 % of control.
Regarding `CCOC(=O)CC(SCP(=O)(OCC)OCC)C(=O)OCC` (stereo not given), the T/C was 101 % of control under setting [9], 95 % of control under setting [10] and 93 % of control under setting [11].
Regarding `COc1ccc(C(=O)/C=C/c2ccc(OC)c(OC)c2OCc2ccccc2)c(O)c1`, the T/C (dose: 100.0 mg/kg/injection, schedule: Q01DX001 (ip), vehicle: Klucel (hydroxypropylcellulose) (HPC)) is 94 % of control and the T/C (dose: 200.0 mg/kg/injection, schedule: Q01DX001 (ip), vehicle: Klucel (hydroxypropylcellulose) (HPC)) was 88 % of control.
On to `CCn1c2ccc([N+](=O)[O-])cc2c2c([N+](=O)[O-])c(NC=O)ccc21`, for which the T/C by setting is: under setting [3], 90 % of control; under setting [4], 95 % of control; under setting [5], 86 % of control.
Consider `Nc1ncnc2c1c1c(=S)nc[nH]c1n2C1OC(CO)C(O)C1O` (stereo not given), for which the T/C (dose: 25.0 mg/kg/injection, schedule: Q01DX009 (ip), vehicle: water) was 158 % of control; the T/C (dose: 50.0 mg/kg/injection, schedule: Q01DX009 (ip), vehicle: water) is 165 % of control; the T/C (dose: 100.0 mg/kg/injection, schedule: Q01DX009 (ip), vehicle: water) was 177 % of control.
In the case of `Cc1ccccc1NC(=O)C(=O)C(C#N)c1ccc(Cl)cc1Cl` (stereo not given), the T/C under setting [3] is 100 % of control, the T/C under setting [4] was 100 % of control and the T/C under setting [5] was 98 % of control.
In the case of `CC1=CC(=O)C=C/C1=N/S(=O)(=O)c1ccccc1`, the T/C is, setting by setting: (dose: 12.5 mg/kg/injection, schedule: Q01DX001 (ip), vehicle: saline with Tween-80) 100 % of control; (dose: 25.0 mg/kg/injection, schedule: Q01DX001 (ip), vehicle: saline with Tween-80) 90 % of control; (dose: 50.0 mg/kg/injection, schedule: Q01DX001 (ip), vehicle: saline with Tween-80) 100 % of control.
Regarding `Cc1nc2nc3n(c(=O)c2nc1C)CCCS3`, the T/C runs as follows: (dose: 50.0 mg/kg/injection, schedule: Q01DX009 (ip), vehicle: saline) 105 % of control; (dose: 100.0 mg/kg/injection, schedule: Q01DX009 (ip), vehicle: saline) 103 % of control; (dose: 200.0 mg/kg/injection, schedule: Q01DX009 (ip), vehicle: saline) 113 % of control.
Take `CCCCCCCCCCNC(=O)C[n+]1cccc(C(=O)NCc2ccccc2)c1`: the T/C (dose: 3.13 mg/kg/injection, schedule: Q01DX009 (ip), vehicle: saline with Tween-80) is 100 % of control; the T/C under setting [14] is 95 % of control; the T/C under setting [15] is 90 % of control.
For `CN1CC(C(=O)O)=Nc2c1nc(N)[nH]c2=O`, the T/C under setting [14] was 101 % of control; the T/C under setting [15] is 109 % of control; the T/C (dose: 25.0 mg/kg/injection, schedule: Q01DX009 (ip), vehicle: saline with Tween-80) is 101 % of control.
For the compound `CS(=O)CC1=NC(=N)N=C1CS(C)=O` (stereo not given), the T/C under setting [16] is 100 % of control, the T/C under setting [17] was 102 % of control and the T/C under setting [18] is 100 % of control.
Consider `O=C1c2ccccc2C(C2c3ccccc3C(=O)c3cc(Br)ccc32)c2ccc(Br)cc21` (stereo not given), for which the T/C under setting [12] was 88 % of control, the T/C under setting [13] is 97 % of control, the T/C under setting [6] was 90 % of control and the T/C under setting [7] is 86 % of control.
In the case of `Clc1ccc2c(c1)C(c1ccccc1Cl)=NCC(SCCN1CCOCC1)=N2`, the T/C by setting is: under setting [16], 107 % of control; under setting [17], 101 % of control; under setting [18], 112 % of control.
Turning to `COC(=O)C1(C)C(=O)C=CC2(C)C1CC(O)C1(C)C2C(O)C(O)C2(C)C(c3ccoc3)CC3OC321` (stereo not given) (tested in a mixture with another compound), the T/C (dose: 0.75 mg/kg/injection, schedule: Q01DX005 (ip), vehicle: Klucel (hydroxypropylcellulose) (HPC)) is 102 % of control; the T/C (dose: 1.5 mg/kg/injection, schedule: Q01DX005 (ip), vehicle: Klucel (hydroxypropylcellulose) (HPC)) is 96 % of control; the T/C (dose: 3.0 mg/kg/injection, schedule: Q01DX005 (ip), vehicle: Klucel (hydroxypropylcellulose) (HPC)) was 96 % of control; the T/C (dose: 6.0 mg/kg/injection, schedule: Q01DX005 (ip), vehicle: Klucel (hydroxypropylcellulose) (HPC)) was 99 % of control; the T/C (dose: 12.0 mg/kg/injection, schedule: Q01DX005 (ip), vehicle: Klucel (hydroxypropylcellulose) (HPC)) is 103 % of control.

The record behind these values is PubChem BioAssay AID330 (DTP/NCI, 2004).
